Data reported in ChEMBL document CHEMBL5518157, “Strategies of targeting CYP51 for IFIs therapy: Emerging prospects, opportunities and challenges” (Eur J Med Chem, 2023).
Values after ≈ are worked out from the molar mass of the structure shown.

Assays:
Trichophyton rubrum [1] = experiment: Antifungal activity against Trichophyton rubrum 0501124 assessed as inhibition of fungal growth incubated for 24 hrs by broth microdilution method; type: functional
Candida albicans [2] = experiment: Antifungal activity against Candida albicans assessed as reduction in microbial growth; type: functional
Candida albicans [3] = experiment: Antifungal activity against Candida albicans ATCC 76615 assessed as fungal growth inhibition incubated for 5 to 7 days by NCCLS based assay; type: functional; conditions: time 5-7 day
Candida albicans [4] = experiment: Antifungal activity against Candida albicans ATCC 10231 assessed as growth inhibition measured for 24 hrs by CLSI based method; type: functional
Candida albicans [5] = experiment: Antifungal activity against Candida albicans SC5314 assessed as reduction in microbial growth incubated for 24 hrs by serial dilution method; type: functional
Trichophyton rubrum [6] = experiment: Antifungal activity against Trichophyton rubrum assessed as fungal growth inhibition incubated for 5 to 7 days by NCCLS based assay; type: functional; conditions: time 5-7 day
Pichia kudriavzevii = experiment: Antifungal activity against Candida krusei ATCC 6258 assessed as reduction in fungal growth by NCCLS method; type: functional
Aspergillus fumigatus = experiment: Antifungal activity against Aspergillus fumigatus CGMCC3 7795 assessed as reduction in fungal growth incubated for 48 hrs by CLSI based microdilution analysis; type: functional
Nakaseomyces glabratus = experiment: Antifungal activity against Candida glabrata ATCC 15126 assessed as reduction in fungal growth incubated for 24 hrs by CLSI based microdilution analysis; type: functional
Candida albicans [7] = experiment: Antifungal activity against Candida albicans assessed as reduction in fungal growth incubated for 24 hrs by broth microdilution method; type: functional, organism-based
Candida albicans [8] = experiment: Antifungal activity against Candida albicans ATCC 96901; type: functional
Nannizzia gypsea = experiment: Antifungal activity against Microsporum gypseum assessed as fungal growth inhibition incubated for 48 hrs by microplate reader assay; type: functional
Candida albicans [9] = experiment: Antifungal activity against Candida albicans SC5314 assessed as reduction in fungal growth incubated for 24 hrs by serial dilution method; type: functional
[Candida] auris = Antifungal activity against Candida auris CBS 12373 assessed as reduction in microbial growth incubated for 24 hrs by serial dilution method; type: functional; conditions: Candidozyma auris
Cytochrome P450 3A4 = Cytochrome P450 3A4 (Homo sapiens, UniProt P08684); experiment: Inhibition of CYP3A4 (unknown origin); type: ADME
Chain of Cytochrome P450 3A4 (P08684 whole entry): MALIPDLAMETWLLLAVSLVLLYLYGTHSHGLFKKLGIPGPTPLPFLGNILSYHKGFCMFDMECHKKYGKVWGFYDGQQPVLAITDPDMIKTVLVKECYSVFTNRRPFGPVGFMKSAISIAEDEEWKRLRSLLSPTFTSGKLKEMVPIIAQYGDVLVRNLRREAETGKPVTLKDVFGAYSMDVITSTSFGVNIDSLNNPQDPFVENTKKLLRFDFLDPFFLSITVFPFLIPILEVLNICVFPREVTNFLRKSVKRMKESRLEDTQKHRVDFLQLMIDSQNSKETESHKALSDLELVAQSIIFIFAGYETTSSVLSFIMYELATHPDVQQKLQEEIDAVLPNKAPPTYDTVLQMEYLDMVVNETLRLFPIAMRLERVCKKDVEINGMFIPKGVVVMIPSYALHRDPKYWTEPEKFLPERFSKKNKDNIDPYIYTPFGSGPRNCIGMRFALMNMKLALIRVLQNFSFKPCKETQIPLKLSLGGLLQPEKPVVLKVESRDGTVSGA

Candida albicans [10] = experiment: Antifungal activity against Candida albicans ATCC 10231 assessed as growth inhibition measured after 48 hrs by CLSI based method; type: functional, organism-based; conditions: ATCC 10231, 48 h
Candida albicans [11] = experiment: Antimicrobial activity against Candida albicans 90028 assessed as microbial growth inhibition by broth microdilution method; type: functional

With `N#Cc1ccc(COc2ccc(C#Cc3ccc(C(F)(F)C(O)(Cn4cnnn4)c4ccc(F)cc4F)nc3)cc2)cc1` (centres undefined) the MIC50 (Trichophyton rubrum [1]) was 8 µg/mL (≈ 13.7 µM) and the MIC50 (Candida albicans [2]) was 0.031 µg/mL.

`O=C(N[C@@H](Cn1ccnc1)C(=O)NCc1ccccc1)c1ccc2ccccc2c1` showed an MIC (Candida albicans [3]) of 0.25 µg/mL (≈ 0.627 µM).

`Fc1ccc([Se]C(Cn2ccnc2)c2ccc(F)cc2F)cc1` (centres undefined) showed an MIC (Candida albicans [4]) of 0.02 µg/mL (≈ 0.0525 µM).

Compound `C[C@H](NC(=O)c1ccc2c(c1)OCCO2)C(=O)NCc1ccncc1` has an MIC (Candida albicans [3]) of 0.125 µg/mL (≈ 0.366 µM).

Compound `Cc1cccc(C)c1[Se]C(Cn1ccnc1)c1ccc(F)cc1` (centres undefined) has an MIC (Candida albicans [4]) of 0.03 µg/mL (≈ 0.0804 µM).

`CC(C)[C@H](NC(=O)c1ccc2c(c1)OCCO2)C(=O)NCc1cccnc1` gave an MIC (Candida albicans [3]) of 0.125 µg/mL (≈ 0.338 µM).

With `O[C@@](Cn1cnnn1)(c1ccc(F)cc1F)C(F)(F)c1ccc(-c2ccc(OC(F)(F)F)cc2)cn1` the MIC50 (Candida albicans [5]) was no more than 0.001 µg/mL.

For `Cc1ccccc1[Se]C(Cn1ccnc1)c1ccc(Cl)cc1` (centres undefined), the MIC (Candida albicans [4]) was 0.03 µg/mL (≈ 0.0798 µM).

In the case of `O=C(CNC(=O)c1ccc2ccccc2n1)NCc1ccncc1`, the MIC (Candida albicans [3]) is reported as 0.125 µg/mL (≈ 0.39 µM).

For `O=c1n(-c2ccc(C(F)(F)C(O)(Cn3cnnn3)c3ccc(F)cc3F)nc2)cnn1C1CCCC1` (centres undefined), the MIC80 (Trichophyton rubrum [6]) was 0.125 µg/mL (≈ 0.248 µM).

`Clc1ccc(C(Cn2ccnc2)[Se]C(Cn2ccnc2)c2ccc(Cl)cc2)cc1` (centres undefined) gave an MIC (Candida albicans [2]) of 2 µg/mL.

Work on `CC(C)Cc1ccc([C@H](C)C(=O)NC[C@](O)(Cn2cncn2)c2ccc(F)cc2F)cc1` yielded an MIC80 (Pichia kudriavzevii) of 0.003 µg/mL (≈ 0.00678 µM).

`N#Cc1ccc(COc2ccc(C#Cc3ccc(C(F)(F)[C@](O)(Cn4cnnn4)c4ccc(F)cc4F)nc3)cc2)cc1` [VT-1598] was tested, and the MIC50 (Aspergillus fumigatus) was 0.25 µg/mL (≈ 0.428 µM) and the MIC50 (Candida albicans [2]) was 0.007 µg/mL.

Work on `C[C@H](C(=O)NC[C@](O)(Cn1cncn1)c1ccc(F)cc1F)c1ccc(-c2ccccc2)c(F)c1` yielded an MIC80 (Pichia kudriavzevii) of 0.007 µg/mL (≈ 0.0146 µM).

In the case of `O=C(O)c1cc(O)c(O)c(O)c1` [GALLIC ACID], the MIC (Nakaseomyces glabratus) is reported as 12.5 µg/mL (≈ 73.5 µM).

`CCC/C=C/C=C/C=C(\C)[C@@H]1OC[C@H](C)[C@H](OC)[C@H]1OC(=O)CN` showed an IC50 (Candida albicans [7]) of 0.47 µM.

Compound `C[C@H](NC(=O)c1ccc2ccccc2n1)C(=O)NCc1ccncc1` has an MIC (Candida albicans [3]) of 0.125 µg/mL (≈ 0.374 µM).

In the case of `Clc1ccc(C(Cn2ccnc2)[Se][Se]C(Cn2ccnc2)c2ccc(Cl)cc2Cl)c(Cl)c1` (centres undefined), the MIC (Candida albicans [8]) is reported as 0.25 µg/mL (≈ 0.392 µM).

`O=c1n(-c2ccc(C(F)(F)C(O)(Cn3cnnn3)c3ccc(F)cc3F)nc2)cnn1C1CCCCC1` (centres undefined) was tested, and the MIC50 (Trichophyton rubrum [1]) was 2 µg/mL (≈ 3.86 µM), the MIC80 (Trichophyton rubrum [6]) was 2 µg/mL (≈ 3.86 µM) and the MIC80 (Nannizzia gypsea) was 4 µg/mL (≈ 7.71 µM).

Compound `CC(C)(C)c1ccc(-c2nnc(Nc3ccc(Cl)cc3)o2)cc1` has an MIC50 (Candida albicans [9]) of 0.5 µg/mL (≈ 1.53 µM), an MIC50 ([Candida] auris) of 0.8 µg/mL and an IC50 (Cytochrome P450 3A4) of 30.5 µM. For the same compound, the IC50 (Candida albicans [10]) was 0.9 µg/mL (≈ 2.75 µM).

Compound `OC(Cn1cnnn1)(c1ccc(F)cc1F)C(F)(F)c1ccc(C#Cc2ccc(F)cc2)cn1` (centres undefined) has an MIC50 (Trichophyton rubrum [1]) greater than 64 µg/mL.

Work on `CC(C)(C)Cn1ncn(-c2ccc(C(F)(F)C(O)(Cn3cnnn3)c3ccc(F)cc3F)nc2)c1=O` (centres undefined) yielded an MIC50 (Trichophyton rubrum [1]) of 2 µg/mL (≈ 3.95 µM), an MIC80 (Trichophyton rubrum [6]) of 2 µg/mL (≈ 3.95 µM) and an MIC80 (Nannizzia gypsea) of 4 µg/mL (≈ 7.9 µM).

`Cc1cccc(C)c1[Se]C(Cn1ccnc1)c1ccc(Cl)cc1` (centres undefined) gave an MIC (Candida albicans [2]) of 0.03 µg/mL.

`Clc1ccc(C(Cn2ccnc2)[Se]Cc2ccccc2Cl)c(Cl)c1` (centres undefined) gave an MIC (Candida albicans [4]) of 0.01 µg/mL (≈ 0.0225 µM).

`CC(C)[C@@H](C)/C=C/[C@@H](C)[C@H]1CC[C@H]2C3=CC=C4C[C@@H](O)CC[C@]4(C)[C@H]3CC[C@]12C` [ERGOSTEROL] gave an MIC90 (Candida albicans [11]) of 512 µg/mL (≈ 1290 µM).
